In paper PMC3433420 (PLoS ONE, 2012):
Residues, ends and D or L forms follow the SMILES beside them.

How the values were obtained:
[1] = system: 93 human SH2 domains and 2 phosphotyrosine binding (PTB) domains; experiment: FP saturation binding assay, whole domain panel (protein named per line or not at all); settings: for interaction with the SH2/PTB domain panel: KD <= 20 µM counted as interaction; for SH2 domains found to interact: high-confidence interactions (Table S11, Figure S14)
Description: (§1) (See Figure 1A) Rhodamine-labeled peptides were dissolved in assay buffer (20 mM HEPES, 100 mM KCl, 0.1% Tween-20, 5 mM DTT, pH 7.8), diluted to a concentration of 20 nM, and plated into black 384-well plates (Corning, Corning, NY) at 5 µL/well using a Perkin Elmer EP3 pipetting workstation (V&P Scientific, Inc., San Diego, CA). SH2, PTB, and thioredoxin control proteins were plated into the first column of 2 mL 96-well plates (Corning) at a concentration of 20 µM and serially diluted 1∶2 into freezing buffer (300 mM NaCl, 50 mM Na2PO4, pH 8, 20% glycerol v/v) eleven times using a Tecan Freedom EVO 100 workstation (Tecan, Männedorf, Switzerland). For the interaction assay, 5 µL of each of the twelve protein concentrations was added to the peptide-containing 384-well plates via the EP3 resulting in a protein dilution range of 0.002–10 µM and a final volume of 10 µL; peptide concentration was fixed at 10 nM. Peptide/protein samples were incubated for 20 minutes at room temperature in the dark and fluorescence polarization (FP) was measured in an Analyst GT multimode reader (Molecular Devices, Sunnyvale, CA) with excitation and emission wavelengths of 530 nm and 555 nm, respectively. Experimental values were output as millipolarization (mP) units and imported into MATLAB (The MathWorks, Inc., Natick, MA) in which equation (1) was used to determine dissociation constants (KDs) for each protein/peptide pairing by least squares nonlinear regression. [drawing 1] (1)
To scale up the number of interaction measurements while minimizing variation introduced by human intervention, we utilized an automated robotic platform (Figure 1A; see experimental procedures and Supplementary Methods) to transfer, incubate, and measure the fluorescence polarization (FP) induced from interactions of a titration series of SH2 domains with synthetic rhodamine-labeled ErbB phosphopeptides. Experimental values were output as millipolarization (mP) units and equation (1) was used to fit apparent midpoint dissociation constants (KDs) for each protein/peptide pair using non-linear regression (see experimental procedures).
For this interaction analysis, we synthesized and queried the interaction of phosphopeptides corresponding to 89 of 92 ErbB family intracellular tyrosines with 93 SH2 domains. Because nine peptide sequences share 100% identity between the receptors in the 4 to 7 amino acids C-terminal to the phosphorylated tyrosine, our peptide set consisted of 81 phosphopeptides corresponding to the 89 unique tyrosine containing sequences (Table S2). This peptide set represents a 50% increase over the three PM studies performed to date. We were therefore able to obtain a more systematic and unbiased view of the relative SH2 domain recruitment potential of each receptor. Although most ErbB receptor auto-phosphorylation sites have been detected frequently by mass spectrometry because of their high relative modification stoichiometry, non-auto-phosphorylation sites have been reported less frequently in the literature (Table S3). We reasoned that many physiologically relevant and uncharacterized ErbB tyrosines of low phosphorylation stoichiometry may exist and that our comprehensive interaction analysis might implicate their importance in mediating physiological interactions. We tested the majority of interactions (7099/8160 (87.0%); Figure S3) three or more times and reported standard error for all interactions that were detected in at least three FP runs (Table S4). […] Analysis of this polarization data may be useful for inferring how SH2 proteins bind to different peptide sequences. Larger proteins and proteins binding closer to the N-terminal rhodamine tag of a given peptide would be expected to induce higher maximal polarization (the calculated maximal polarization value at infinite protein concentration) than proteins binding farther from the tag. In addition to phosphopeptides, we queried a representative set of 27 non-phosphopeptides against the entire domain set. […]

[2] = target: T1, PLCG1-NC tandem SH2 domains (Homo sapiens, UniProt P19174); experiment: FP saturation binding assay; settings: Protein PLCG1-NC; FP saturation binding, high-confidence ErbB interactions; mean over replicate hits
T1 construct: the tandem protein was included in our analysis with all internal amino acids linking the domains; 6X His; thioredoxin; made in house; host or cells: E. coli BL21(DE3)pLysS
T1 sequence (P19174 550-756 limits assumed): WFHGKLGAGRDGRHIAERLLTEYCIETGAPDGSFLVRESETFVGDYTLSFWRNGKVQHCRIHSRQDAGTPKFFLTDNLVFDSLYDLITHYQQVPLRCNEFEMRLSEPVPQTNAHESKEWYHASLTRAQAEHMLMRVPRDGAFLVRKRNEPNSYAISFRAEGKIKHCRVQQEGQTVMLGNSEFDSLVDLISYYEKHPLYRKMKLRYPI
Description: as §1, with “Peptide/protein samples were incubated for 20 minutes at room temperature in the dark and fluorescence polarization (FP) was measured in an Analyst GT multimode reader (Molecular Devices, Sunnyvale, CA) with excitation and emission wavelengths of 530 nm and 555 nm, respectively.” left out
(§2) FP was described by the following equation: P=Iparallel-IperpendicularIparallel+Iperpendicular, where “P” denotes polarization, and “I” denotes the fluorescent intensity relative to the plane of incident light. Experimental values were output as millipolarization (mP) units and imported into MATLAB where the following equation was used to determine dissociation constants (KDs) for each protein/peptide pairing by least squares nonlinear regression:
(§3) Pobs=Pmax∙ProteinKD+Protein [picture] (1)
Peptides were initially tested for systematic plate effects across protein dilutions and nonspecific binding to thioredoxin by linear regression analysis and any effects were regressed out. The median baseline control polarization value for each plate was then subtracted from each data point to make each binding curve intersect at zero. Plates with excessive variation in baseline control polarizations on both a global and run-specific manner (Dixon’s Q test, p < 0.05) were excluded from further analysis. Outliers in each binding curve were identified and removed using an iterative procedure as follows. The residuals for each fit were used to calculate a global standard deviation of the residuals (GSDR) for each concentration of SH2 domain over all interactions, and individual data points with residuals < or > two GSDR from the global mean residual were flagged as outliers. The outlier with the largest residual from each interaction was removed and nonlinear regression was again performed. This procedure was repeated if additional outliers were identified for an interaction, discarding the interaction if the number of outliers exceeded three. […] In order to further control our false positive rate against hidden confounding variables producing binding artifacts, we sought to determine whether there was a significant relationship between the strength of an interaction and its technical replication rate at our stringent significance and filtering thresholds. We performed logistic regression on the proportion of successful replicates for each interaction query against KD for all interactions (Figure S15A). […] “High-confidence” FP interactions are defined as those having 1 - P(Observed Replication Rate | Expectation) > 0.5 and that have replicated at least twice across independent FP runs. […] The compiled FP data were organized into heatmaps generated by MATLAB and relative binding strength (µM). Peptides without at least one positive hit were classified as “no interaction” if there was no homologous sequence (i.e. identical at the +1 to +4 positions relative to the phosphotyrosine) that produced a positive interaction within the ErbB receptor family.

PIK3R3-N SH2 domain = target: T2, PIK3R3-N SH2 domain (Homo sapiens, UniProt Q92569); experiment: FP saturation binding assay; settings: Protein PIK3R3-N; FP saturation binding, high-confidence ErbB interactions; mean over replicate hits
T2 construct: 6X His; thioredoxin; made in house; host or cells: E. coli BL21(DE3)pLysS
Description: as §1, §2, §3
Peptides were initially tested for systematic plate effects across protein dilutions and nonspecific binding to thioredoxin by linear regression analysis and any effects were regressed out. The median baseline control polarization value for each plate was then subtracted from each data point to make each binding curve intersect at zero. Plates with excessive variation in baseline control polarizations on both a global and run-specific manner (Dixon’s Q test, p < 0.05) were excluded from further analysis. Outliers in each binding curve were identified and removed using an iterative procedure as follows. The residuals for each fit were used to calculate a global standard deviation of the residuals (GSDR) for each concentration of SH2 domain over all interactions, and individual data points with residuals < or > two GSDR from the global mean residual were flagged as outliers. The outlier with the largest residual from each interaction was removed and nonlinear regression was again performed. This procedure was repeated if additional outliers were identified for an interaction, discarding the interaction if the number of outliers exceeded three. […] In order to further control our false positive rate against hidden confounding variables producing binding artifacts, we sought to determine whether there was a significant relationship between the strength of an interaction and its technical replication rate at our stringent significance and filtering thresholds. We performed logistic regression on the proportion of successful replicates for each interaction query against KD for all interactions (Figure S15A). […] This is related to the observation that the majority of interactions detected by FP are tight (Figure S15B). With this logit model, we assigned a probability to each peptide-protein interaction in our data by using a binomial proportions test to compare the observed versus the expected replication rate at the particular KD of that interaction (Table S4). […]

[3] = target: PIK3R2-NC tandem SH2 domains (Homo sapiens, UniProt O00459); experiment: FP saturation binding assay
PIK3R2-NC tandem SH2 domains, sequence (O00459 330-716 limits assumed): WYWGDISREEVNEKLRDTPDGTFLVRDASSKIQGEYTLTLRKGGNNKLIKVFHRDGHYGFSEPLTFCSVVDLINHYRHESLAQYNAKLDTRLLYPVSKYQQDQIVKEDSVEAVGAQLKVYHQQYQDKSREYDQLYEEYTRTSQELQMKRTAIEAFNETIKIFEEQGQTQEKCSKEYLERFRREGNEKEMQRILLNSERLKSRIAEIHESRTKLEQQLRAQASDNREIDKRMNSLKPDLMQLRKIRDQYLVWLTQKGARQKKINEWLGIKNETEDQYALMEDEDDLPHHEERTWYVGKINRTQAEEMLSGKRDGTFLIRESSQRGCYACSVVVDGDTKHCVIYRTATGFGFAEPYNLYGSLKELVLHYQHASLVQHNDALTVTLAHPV

DVWSpYGVTIWELd [ErbB4 pY906, N-terminally rhodamine-labeled 13-mer phosphopeptide]
interaction with the SH2/PTB domain panel [1]: reproducibly interacted at high affinity with many SH2 domains | SH2 domains found to interact [1]: interacted with ZAP70, GRB7, and GRB10 SH2 domains

KIRKpYTMRRLLQd [ErbB2 pY685, N-terminally rhodamine-labeled 13-mer phosphopeptide]
interaction with the SH2/PTB domain panel [1]: reproducibly interacted at high affinity with many SH2 domains | SH2 domains found to interact [1]: interacted with SOCS family SH2 domains

DAEEpYLVPQAFN [ErbB4 pY1022, N-terminally rhodamine-labeled 13-mer phosphopeptide]
interaction with the SH2/PTB domain panel [1]: did not produce any interaction hits

CC(C)C[C@H](NC(=O)CNC(=O)[C@H](CC(C)C)NC(=O)[C@H](Cc1ccc(OP(=O)(O)O)cc1)NC(=O)[C@H](CCC(=O)O)NC(=O)[C@@H]1CCCN1C(=O)[C@H](CC(N)=O)NC(=O)[C@@H](N)CCC(=O)O)C(=O)N[C@@H](CC(=O)O)C(=O)N[C@H](C(=O)N1CCC[C@H]1C(=O)N[C@H](C(=O)N[C@@H](CC(=O)O)C(=O)O)C(C)C)C(C)C [ErbB2 1248 13-mer] (HELM PEPTIDE1{E.N.P.E.[O=C([C@H](Cc1ccc(OP(=O)(O)O)cc1)N[*:1])[*:2]].L.G.L.D.V.P.V.D}$$$$V2.0)
Kd [2]: 9.97 µM | Kd (PIK3R3-N SH2 domain): 11.2 µM | Kd [3]: 9.9 µM
